According to patent US9006454B2, “Dihydroorotate dehydrogenase inhibitors” (Merck Serono S.A., priority 2009, dated 2015):

How the values were obtained:
Jurkat cells = experiment: Measurement of cell proliferation (Jurkat cell), XTT assay; assay type: cell-based; details: for inhibition at 1 µM / EC50: Homo sapiens, Jurkat; for inhibition at 1 µM: read-out: % inh Jurkat_cells @ 1 uM (%); for EC50: 72 h, XTT cell viability
Procedure: See also Roehm, N et al [1991] An improved colorimetric assay for cell proliferation and viability utilizing the tetrazolium salt XTT. J. Immunol. Methods 142:257-265.
Culture Jurkat cells in T-25 flasks at a density of 0.2×10^6/ml 2-3 days before the day of experiment set up.
Centrifuge Jurkat T-cell suspension at 1200 rpm for 10 minutes and resuspend cells again in fresh RPMI medium with 10% FBS.
Count the cells and dilute suspension to a density of 2×10^6 cells/ml. Seed 50 μL of this suspension in each well of a 96 well plate (100,000 cells per well). Keep the edges of the plate empty to avoid evaporation.
Serially dilute DMSO stocks of compounds to get different concentrations for an EC50 curve. 50 μL of compound diluted in media (2× concentration required in well) is added to each well. DMSO concentration should be kept constant at 0.25-0.5% for all wells.
Typically, for all compounds with IC50<1 μM, compound concentration can start at 10 μM followed by half log dilutions for a total of 8-10 concentrations. Each concentration has to be tested in triplicate.
Include controls such as cells without compound (with same DMSO concentration as compound wells), and media control
Incubate the 96 well plate in a CO2 incubator at 37° C. for 72 hrs before determining cell viability using XTT assay
XTT assay: to each well, add 50 μL of 1 mg/ml XTT solution with 20 μl of PMS/mL. Read the plates after 2 hours at 465 nm using the spectrophotometer. XTT reading for media without cells is used as background reading.
Calculate % cell viability assuming that the cells without compound are 100% viable.
Plot % cell viability as a function of concentration and determine EC50 by using software such as Graph Pad Prism to fit the curve.

DHODH = DHODH (Homo sapiens (Human), UniProt Q02127); experiment: DHODH activity assay (coupled enzyme assay, DCIP reduction, absorbance at 610 nm); assay type: biochemical; details: for inhibition at 10 µM: read-out: inh @ 10 uM hDHODH (%)
Procedure: The DHODH activity assay is a coupled enzyme assay in which oxidation of DHO and subsequent reduction of ubiquinone are stoichiometrically equivalent to the reduction of DCIP ([…]). The reduction of DCIP is accompanied by a loss of absorbance at 610 nm.
Buffer Preparation: 50 mM tris HCl, 150 mM KCl, and pH 8.0, 0.8% triton.
5 μL of Dimethyl sulfoxide or a compound of formula I in DMSO solution was added to the wells of a 96 well plate. Compounds of formula I were measured at 10 μM.
Protein along with buffer was added, so that the total volume including the DMSO was 87 μL. Compound and protein were incubated for half an hour at room temperature after mixing. 5 μL of 20 mM solution of L-Dihydroorotic acid, 5 μL of 2 mM solution of Decylubiquinone and 3 μL of 2 mM solution of 2,6-Dichloroindophenol sodium salt hydrate were added to the above solution (total assay volume 100 μL). The mixture was stirred for 2 min and absorbance was recorded at every 10 min at 610 nanometers.
Percent Inhibition is Calculated as Follows
Positive control contains DMSO, buffer, enzyme and substrates
No Enzyme reaction contains DMSO, buffer and substrates
IC50 determination: • A 2 mM DMSO stock of the compound of formula I to be examined was prepared. ⅓rd dilutions were made as follows:
5 μL of each stock of compound of formula I (solution indicated in column 4 of table) was used for each 100 μL assay. Therefore, 5 μL of the 2 mM stock provided 100 μL of 100 μM solution of compound of formula I, when made up with buffer, protein and substrate. See also: Ulrich et al. (2001) Eur. J. Biochem. 268, 1861-1868.

Chain of DHODH (Q02127 whole entry): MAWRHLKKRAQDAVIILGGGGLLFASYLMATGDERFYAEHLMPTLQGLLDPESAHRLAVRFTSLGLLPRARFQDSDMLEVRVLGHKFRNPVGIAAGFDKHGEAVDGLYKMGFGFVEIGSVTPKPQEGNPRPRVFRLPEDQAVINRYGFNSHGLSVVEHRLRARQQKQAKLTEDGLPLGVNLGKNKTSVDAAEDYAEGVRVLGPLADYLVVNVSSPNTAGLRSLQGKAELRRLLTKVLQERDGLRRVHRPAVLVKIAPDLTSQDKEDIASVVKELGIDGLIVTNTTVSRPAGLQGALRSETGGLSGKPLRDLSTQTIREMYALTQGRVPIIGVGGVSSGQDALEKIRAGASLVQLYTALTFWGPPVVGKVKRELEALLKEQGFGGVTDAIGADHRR

SMILES	inhibition at 1 µM (Jurkat cells; compound at 1 uM) [%]	IC50 (DHODH) [nM]	inhibition at 10 µM (DHODH; compound at 10 uM) [%]	% inh Jurkat_cells @ 1 uM (%) (Jurkat cells; compound at 1 uM)	inh @ 10 uM hDHODH (%) (DHODH; compound at 10 uM)	EC50 (Jurkat cells) [nM]
Cc1cc(-c2nnn[nH]2)c2nc(-c3c(F)c(F)c(-c4ccccc4)c(F)c3F)[nH]c2c1 [I103]	64.2	1200	107			
O=C(O)c1cccc2[nH]c(-c3ccc(-c4cccc(F)c4)cc3)nc12 [I17]	23.5	3790	65.2			
Cc1cc(C(=O)O)c2[nH]c(-c3ccc(-n4ccccc4=O)cc3)nc2c1 [I64]	1.5		5.7			
Cc1cc(C(=O)O)c2c(c1)nc(-c1c(F)c(F)c(-c3ccc(O)cc3)c(F)c1F)n2CCO [I94]	82.5	78	89.7			
Cc1cc(C(=O)NC(C)C)c2[nH]c(-c3c(F)c(F)c(-c4ccccc4)c(F)c3F)nc2c1 [I162]	28.5		71.3			
Cc1cc(C(=O)OCCO)c2[nH]c(-c3c(F)c(F)c(-c4ccccc4)c(F)c3F)nc2c1 [I156]	31.4		69.1			
O=C(O)c1cccc2nc(-c3ccc(-c4ccccc4)cc3F)[nH]c12 [I27]	57.1	922	86.2			
O=C(O)c1cccc2[nH]c(-c3ccc(-c4cccc(F)c4F)cc3)nc12 [I60]	33.4		80.4			
Cc1cc(C(=O)O)c2[nH]c(-c3ccc(-c4ccccc4OCc4ccccc4)cc3)nc2c1 [I106]	48	1500	91			
Cc1cc(-c2nnc(O)o2)c2nc(-c3c(F)c(F)c(-c4ccccc4)c(F)c3F)[nH]c2c1 [I159]	13.4		32.3			
O=C(O)c1cccc2[nH]c(-c3ccc(-c4ccccc4F)cc3)nc12 [I15]	64.4	490	96.4			
Cc1cc(C(=O)O)c2[nH]c(-c3ccc(-c4cccc(OCCC5CCNCC5)c4)cc3)nc2c1 [I153]	15.1		53.4			
O=C(O)c1cccc2nc(-c3c(F)c(F)c(-c4cccc(F)c4)c(F)c3F)[nH]c12 [I125]	92	28.2	97			
COc1cc(-c2ccccc2)ccc1-c1nc2c(C(=O)O)cc(C)cc2[nH]1 [I46]	57.1	1180	97.7			
Cc1cc(C(=O)O)c2nc(-c3c(F)c(F)c(Oc4ccccc4)c(F)c3F)[nH]c2c1 [I189]	3		39.8			
O=C(O)c1cc(Cl)cc2c1N=C(c1ccc(-c3ccccc3)cc1)C2 [I51]		2320		39.5	86.4	
Cc1cc(C(=O)O)c2nc(-c3c(F)c(F)c(-c4ccccc4F)c(F)c3F)[nH]c2c1 [I140]	101	3.5	100			33
O=C(O)c1cc(F)cc2nc(-c3ccc4[nH]ccc4c3)[nH]c12 [I36]	7.7		16.1			

SMILES	inhibition at 1 µM (Jurkat cells; compound at 1 uM) [%]	IC50 (DHODH) [nM]	inhibition at 10 µM (DHODH; compound at 10 uM) [%]	% inh Jurkat_cells @ 1 uM (%) (Jurkat cells; compound at 1 uM)	inh @ 10 uM hDHODH (%) (DHODH; compound at 10 uM)	EC50 (Jurkat cells) [nM]
N#Cc1ccc(Oc2ccc(-c3ccc(-c4nc5c(C(=O)O)cccc5[nH]4)cc3)cc2)cc1 [I179]	10.1		45.8			
Cc1cc(C(=O)O)c2nc(-c3c(F)c(F)c(-c4ccc(F)c(F)c4)c(F)c3F)[nH]c2c1 [I145]	75.8	314	95.6			
Cc1cc(C(=O)O)c2[nH]c(-c3ccc(-c4ccc(F)cc4F)cc3)nc2c1 [I33]	50.5	1420	91.3			
O=C(O)c1cccc2[nH]c(-c3ccc(N4CCCCCC4=O)cc3)nc12 [I81, 2-[4-(2-Oxo-azepan-1-yl)-phenyl]-1H-benzoimidazole-4-carboxylic acid]	6.7		17.9			
O=C(O)c1cccc2[nH]c(-c3ccc(-c4ccc(O)cc4)cc3)nc12 [I177]	40.5		51.3			
Cc1cc(C(=O)O)c2nc(-c3ccc(-c4ccc(OCc5cccnc5)cc4)cc3)[nH]c2c1 [I120]	66.1	755	89.9			
Cc1cc(C(=O)O)c2nc(-c3ccc(-c4ccc(OCCCN5CCOCC5)cc4)cc3)[nH]c2c1 [I87]	35.7	3020	74.1			
O=C(O)c1cccc2nc(-c3ccc(-c4ccccc4F)cc3F)[nH]c12 [I24]	53.2	965	86.7			
O=C(O)c1cccc2[nH]c(-c3c(F)c(F)c(-c4ccc(OCc5ccccc5)cc4)c(F)c3F)nc12 [I132]	67.8	378	91.5			
Cc1cc(C(=O)O)c2[nH]c(-c3cc4ccccc4[nH]3)nc2c1 [I40]	3.7		23.3			
O=C(O)c1cc(Cl)cc2nc(-c3ccc(-c4ccccc4)cc3)[nH]c12 [I35]	56.4	994	92.9			746
Cc1cc(C(=O)O)c2[nH]c(-c3ccc(-c4ccc(F)cc4F)cc3F)nc2c1 [I31]	55.5	1010	92.7			
O=C(O)c1cccc2[nH]c(-c3ccc(Oc4ccccc4)cc3)nc12 [I10]	35.1	2870	80.3			
O=C(O)c1cccc2nc(-c3ccc(-c4ccccn4)cc3)[nH]c12 [I73, 2-(4-Pyridin-2-yl-phenyl)-3H-benzoimidazole-4-carboxylic acid]	13.6		29.6			
Cc1cc(C(=O)O)c2[nH]c(-c3ccc(-c4ccccn4)cc3)nc2c1 [I74, 6-Methyl-2-(4-pyridin-2-yl-phenyl)-3H-benzoimidazole-4-carboxylic acid]	18.4		56.6			
O=C(O)c1cccc2[nH]c(-c3c(F)c(F)c(-c4cccc(OC(F)(F)F)c4)c(F)c3F)nc12 [I148]	88.6	218	103			
Cc1cc(C(=O)O)c2nc(-c3ccc(-c4ccccc4)cn3)[nH]c2c1 [I53]	22.7	7070	59.8			
O=C(O)c1cccc2[nH]c(-c3ccc(-c4ccncc4)cc3)nc12 [I57]	12.6		58			
